Data from patent US10813905B2, “Methods of treating sickle cell disease and related disorders using fumaric acid esters” (Augusta University Research Institute, Inc., priority 2012, dated 2020).
Structures can show the parent of a compound that is named as a salt. One block for each compound: values may come before it.

Key:
[1] = system: γ-globin gene expression in KU812 cells; assay: γ-globin gene expression by qPCR in KU812 cells; type: cell-based, human; conditions: 100 μM, depending upon the incubation time (3-24 h)
Description: KU812 cells were cultured in the presence or absence of MMF for time periods ranging from 0-24 hours and evaluated for changes in γ-globin gene expression relative to 18S ribosomal RNA expression (internal experimental control) by qPCR (FIG. 1). In comparison to control, untreated (UT) cells, significant increases in γ-globin gene expression were observed as early as 3 hours post-incubation with low-does (100 μM) MMF treatment. This MMF-induced increase in γ-globin expression persisted up to 24 h post-exposure to the compound. Data in FIG. 1 are represented as means±standard error of the mean (SEM); *P<0.05, **P<0.01 and ***P<0.001.
FIG. 2 is reproduced from MaKala et al., Anemia, Volume 2012, Article ID 428137) (2012). […] At 100 μM, the same concentration that we used for MMF, HU induces γ-globin gene expression ˜2-fold.

[2] = system: γ/β-globin mRNA in primary human erythroid cells; assay: γ/β-globin mRNA by qPCR in primary human erythroid progenitors; type: cell-based; conditions: DMF 200 μM, MMF 1000 μM
Description: HU (100 μM; Sigma) was included as a positive control and cell viability was monitored by trypan blue exclusion. Findings in KU812 cells were confirmed in human primary erythroid progenitor cells grown in liquid culture using a published protocol. Globin expression was measured by qPCR also as previously published. HbF protein was measured relative to that of isotype control using FITC conjugated anti-human HbF antibody (1:1000; Santa Cruz Biotechnology, Santa Cruz, Calif.) and fluorescence activated cell sorting (see supplemental methods for details). HbF protein expression was confirmed by Western blot analysis using anti-human HbF antibody (1:1000; Bethyl Laboratories, Inc., Montgomery, Tex.) and horseradish peroxidase-conjugated sheep IgG (1:1000; Santa Cruz). Erythroid progenitors were generated in vitro from adult CD34^+ stem cells ([…] technologies, Inc. Vancouver, Canada) using a 2-stage culture system that achieves terminal erythroid differentiation18. CD34^+ stem cells (500,000) were grown in First medium consisting of Iscove Modified Dulbecco Media containing human AB serum, interleukin-3 (10 ng/mL), stem cell factor (10 ng/mL) and erythropoietin (2 IU/mL). On day 7, the erythroblasts were placed in Second medium with 2 IU/mL erythropoietin for the duration. […] Then cells were harvested for total RNA and protein for qPCR, FACS and western blot analyses.

[3] = system: γ-globin promoter; assay: KU812 dual-luciferase reporter assay of γ-globin promoter activity; type: cell-based, human; conditions: for concentration of maximal induction of γ-globin promoter activity: 0-1000 μM, 48 h
Excerpt: (§1) KU812 stable cell lines were created by co-transfecting wild-type KU812 cells with pEGFP-NI (G418 selectable marker) and the μLCRβprRluc AγprFluc dual reporter a kind gifts from Dr. George Stamatoyannopoulos (University of Washington). Briefly, the 315-bp human β-globin gene promoter sequence was inserted upstream of the Renilla along with a polyadenylation signal downstream to create PβprRluc. Likewise, 1.4 kb of human aγ-globin promoter was inserted upstream of firefly luciferase to create AγprFluc. The μLCR (locus control region), PβprRluc, and AγprFluc fragments were subsequently cloned into the mammalian vector, pRL-null. The dual-luciferase reporter lines were produced using 10 μg each of linearized μLCRβprRluc AγprFluc and pEGFP-NI plasmids co-transfected into KU812 cells by electroporation at 260 V, 975 μF (Bio-Rad, Hercules Calif.). After 72 hr, G418 was added at a concentration of 900 μg/μl for 3 days then maintained under selection pressure indefinitely at a concentration of 400 μg/μl. […] FK228 and analogues were screened at concentrations between 1-1000 nM for 48 hr and cell toxicity was monitored by 2% Trypan blue exclusion. The effect of drug treatments on γ-globin and β-globin promoter activity was monitored by luciferase assay.
Luciferase activity was monitored under the different experimental conditions using the Dual Luciferase Assay Reporter System (Promega, Madison, Wis.). The activity of firefly luciferase represents γ-globin promoter activity (γF), while the renilla luciferase is the read-out for β-globin promoter activity (βR). […] After drug treatments, KU812 stable cells were washed with 1× phosphate buffered saline and lysed in 1× Passive Lysis Buffer for 15 min, then protein extracts were added to the Luciferase Assay Reagent II and firefly luciferase activity quantified in a Turner Designs TD-20/20 luminometer (Sunnyvale, Calif.). […] Total protein was determined by Bradford assay on a Beckman DU 640 spectrophotometer (Chaska, Minn.) and luciferase activity was corrected for total protein. […]

[4] = system: HbF in primary human erythroid cells; assay: FACS of HbF positive cells in primary human erythroid progenitors; type: cell-based; conditions: DMF 200 μM, MMF 1000 μM, HU 100 μM
Description: HU (100 μM; Sigma) was included as a positive control and cell viability was monitored by trypan blue exclusion. Findings in KU812 cells were confirmed in human primary erythroid progenitor cells grown in liquid culture using a published protocol. Globin expression was measured by qPCR also as previously published. HbF protein was measured relative to that of isotype control using FITC conjugated anti-human HbF antibody (1:1000; Santa Cruz Biotechnology, Santa Cruz, Calif.) and fluorescence activated cell sorting (see supplemental methods for details). HbF protein expression was confirmed by Western blot analysis using anti-human HbF antibody (1:1000; Bethyl Laboratories, Inc., Montgomery, Tex.) and horseradish peroxidase-conjugated sheep IgG (1:1000; Santa Cruz).
Erythroid progenitors were generated in vitro from adult CD34^+ stem cells ([…] technologies, Inc. Vancouver, Canada) using a 2-stage culture system that achieves terminal erythroid differentiation18. CD34^+ stem cells (500,000) were grown in First medium consisting of Iscove Modified Dulbecco Media containing human AB serum, interleukin-3 (10 ng/mL), stem cell factor (10 ng/mL) and erythropoietin (2 IU/mL). On day 7, the erythroblasts were placed in Second medium with 2 IU/mL erythropoietin for the duration. […] Then cells were harvested for total RNA and protein for qPCR, FACS and western blot analyses.
After drug treatments, 500,000 cells were washed twice with phosphate buffered saline and then fixed in 4% paraformaldehyde and permeated with ice-cold acetone/methanol (4:1). Cells were incubated with anti-γ-globin-FITC antibody (Santa Cruz Biotechnology, Santa Cruz, Calif.) in PBT (PBS/01% BSA/0.1% triton X100) solution for 20 min to stain intracellular HbF antigens. The labeled cells were analyzed by Bectin Dickerson LSR-II flow cytometer (BD Bioscience). All experiments were performed in triplicate.

[5] = system: KU812 cells; type: cell-based; conditions: human, 48 h
Excerpt: as §1, with “pRL-null.” for “pRL-null. The dual-luciferase reporter lines were produced using 10 μg each of linearized μLCRβprRluc AγprFluc and pEGFP-NI plasmids co-transfected into KU812 cells by electroporation at 260 V, 975 μF (Bio-Rad, Hercules Calif.). After 72 hr, G418 was added at a concentration of 900 μg/μl for 3 days then maintained under selection pressure indefinitely at a concentration of 400 μg/μl.”
Luciferase activity, an indicator of γ-globin promoter induction, was monitored KU812 μLCRβprRlucγprFluc—stable cells cultured in the presence of absence (untreated control, UT) of MMF at varying dosages for 48 hour according to the method discussed above and in MaKala et al., Anemia, Volume 2012, Article ID 428137) (2012).
HU (100 μM; Sigma) was included as a positive control and cell viability was monitored by trypan blue exclusion. […] Globin expression was measured by qPCR also as previously published. […]

[6] = system: small intestinal cell model; conditions: cited from earlier work
[7] = system: OCTN1; assay: OCTN1 mRNA expression in ARPE-19 cells; type: cell-based, human; conditions: RPE (ARPE-19) cells; MMF 1000 μM, HU 100 μM
Excerpt: Red blood cells, cells of erythroid lineage, are the primary producers of hemoglobin. […] The includes retinal pigment epithelial (RPE) cells, a cell type critical to normal visual function. […] Data are represented as mean±SEM; *p<0.05.

[8] = system: γ-globin gene expression in primary RPE cells; assay: γ-globin/HbF expression in primary RPE cells from humanized mice; type: cell-based, mouse; conditions: ARPE-19 and primary RPE cells (FIGS. 8B, 8D, 8E, 11)
Description: The effect of MMF on primary RPE cells was also investigated. RPE cells were isolated from the eyes of humanized mice and used to establish primary RPE cell cultures. […] Primary RPE cells were cultured in the presence or absence of MMF at concentrations ranging from 0-1000 μM for a period of 9 hours. Total RNA was prepared and γ-globin gene expression analyzed by qPCR. […] Data are represented as mean±SEM; *P<0.01, **P<0.001.
Identical experiments were performed using the human RPE cell line ARPE-19, an established model for the study of RPE19, and primary RPE cell cultures established from the eyes of HbAA- and HbSS-expressing Townes humanized knock-in SCD mice (Jackson Laboratories, Bar Harbor, Me.) per our published method. Additionally, MMF (1 mM final concentration) or PBS (control) was injected intravitreally into the eyes of HbAA and HbSS mice and retinal γ-globin and HbF expression analyzed by qPCR and immunofluorescence 24 h post-injection. Animal studies were approved by the Georgia Regents University Institutional Committee for Animal Use in Research and Education.
HbF protein production in ARPE-19 cells exposed to MMF (1000 μM) for 24 h was evaluated using a FITC-conjugated HbF antibody and fluorescence microscopy (data not shown). Cell nuclei were counterstained with DAPI. […]

[9] = single doses, healthy adults, cited from earlier work

SMILES: COC(=O)/C=C/C(=O)O [MMF, monomethyl fumarate]
γ-globin gene expression, fold increase vs untreated [1]: 2-4 fold
γ/β-globin mRNA induction [2]: 8 fold
concentration of maximal induction of γ-globin promoter activity [3]: 1000 µM
increase in HbF positive cells (FACS) [4]: 32 fold
Cell viability by Trypan blue exclusion [5]: 90-95%

effectiveness as inducer of γ-globin promoter activity at higher concentrations ([3]; concentrations higher than 100-200 μM): declined substantially
SMILES: COC(=O)/C=C/C(=O)OC [DMF, dimethyl fumarate]
permeability ([6]; in vitro small intestinal cell model): high permeability
metabolism in the intestinal tissue ([6]; intestinal tissue): complete metabolism
concentration of maximal induction of γ-globin promoter activity [3]: 200 µM
increase in HbF positive cells (FACS) [4]: 28 fold

SMILES: NC(=O)NO [HU, hydroxyurea]
OCTN1 expression [7]: little to no effect
γ-globin expression and HbF production in RPE cells [8]: induction of γ-globin expression and HbF production
increase in HbF positive cells (FACS) [4]: 15 fold

SMILES: CCN(CC)C(=O)COC(=O)/C=C/C(=O)OC [XP23829]
tolerability ([9]; four oral formulations): generally well-tolerated
levels of MMF in the blood [9]: expected levels of MMF in the blood
